Source: ChEMBL document CHEMBL3885881, “DrugMatrix”

Species on record: Rattus norvegicus
Assay: DrugMatrix - Regimen: Daily Repeat
Type: toxicity, organism-based, Sprague-Dawley
Set-up: regimen Daily Repeat, gender Male, age 6-8 weeks
Details: in vivo, iv, vehicle 100 % SALINE; for ABSOLUTE BASOPHIL / ABSOLUTE EOSINOPHIL / ABSOLUTE LYMPHOCYTE / ABSOLUTE MONOCYTE / ABSOLUTE SEGMENTED NEUTROPHIL / BASOPHIL / EOSINOPHIL / ERYTHROCYTE COUNT / HEMATOCRIT / HEMOGLOBIN / LEUKOCYTE COUNT / LYMPHOCYTE / MEAN CORPUSCULAR HEMOGLOBIN / MEAN CORPUSCULAR HEMOGLOBIN CONCENTRATION / MEAN CORPUSCULAR VOLUME / MONOCYTE / NEUTROPHIL / NUCLEATED RED BLOOD CELLS / PLATELET COUNT: tissue Blood; for ALANINE AMINOTRANSFERASE / ALBUMIN / ALKALINE PHOSPHATASE / ASPARTATE AMINOTRANSFERASE / BLOOD UREA NITROGEN / CARBON DIOXIDE / CHLORIDE / CHOLESTEROL / CREATINE PHOSPHOKINASE / CREATININE / GLUCOSE / LACTATE DEHYDROGENASE / LIPASE / PHOSPHORUS / POTASSIUM / SODIUM / TOTAL BILIRUBIN / TOTAL PROTEIN / URIC ACID: tissue Plasma
[1] = 0 mg/kg, 72 h, dose level Control, time 3 day
[2] = 0 mg/kg, 120 h, dose level Control, time 5 day
[3] = 29 mg/kg, 72 h, dose level Low, time 3 day

SMILES: C[n+]1ccccc1/C=N/O.[Cl-] [PRALIDOXIME CHLORIDE]
- ABSOLUTE BASOPHIL [1]: 0 CELLS/uL
- ABSOLUTE EOSINOPHIL [1]: 53.17 CELLS/uL
- ABSOLUTE LYMPHOCYTE [1]: 13731.5 CELLS/uL
- ABSOLUTE MONOCYTE [1]: 186.17 CELLS/uL
- ABSOLUTE SEGMENTED NEUTROPHIL [1]: 1645.83 CELLS/uL
- BASOPHIL [1]: 0%
- EOSINOPHIL [1]: 0.33%
- ERYTHROCYTE COUNT [1]: 5.57 x10E6/uL
- HEMATOCRIT [1]: 36.33%
- HEMOGLOBIN [1]: 13.47 G/DL
- LEUKOCYTE COUNT [1]: 15.62 x10E3/uL
- LYMPHOCYTE [1]: 88.5%
- MEAN CORPUSCULAR HEMOGLOBIN [1]: 24.22 pg
- MEAN CORPUSCULAR HEMOGLOBIN CONCENTRATION [1]: 37.1 G/DL
- MEAN CORPUSCULAR VOLUME [1]: 65.35 fL
- MONOCYTE [1]: 1.17%
- NEUTROPHIL [1]: 10%
- NUCLEATED RED BLOOD CELLS [1]: 0.17 /100WBC
- PLATELET COUNT [1]: 1295.5 x10E3/uL
- ALANINE AMINOTRANSFERASE [1]: 46.83 u/L
- ALBUMIN [1]: 4.37 G/DL
- ALKALINE PHOSPHATASE [1]: 414.33 u/L
- ASPARTATE AMINOTRANSFERASE [1]: 72.5 u/L
- BLOOD UREA NITROGEN [1]: 17 mg/dL
- CARBON DIOXIDE [1]: 23.5 mmol/L
- CHLORIDE [1]: 102 MEQ/L
- CHOLESTEROL [1]: 80.33 mg/dL
- CREATINE PHOSPHOKINASE [1]: 207.83 u/L
- CREATININE [1]: 0.22 mg/dL
- GLUCOSE [1]: 172.17 mg/dL
- LACTATE DEHYDROGENASE [1]: 131 u/L
- LIPASE [1]: 10.33 u/L
- PHOSPHORUS [1]: 11.75 mg/dL
- POTASSIUM [1]: 6.83 MEQ/L
- SODIUM [1]: 145.28 MEQ/L
- TOTAL BILIRUBIN [1]: 0.22 mg/dL
- TOTAL PROTEIN [1]: 6.22 G/DL
- URIC ACID [1]: 1.9 mg/dL
- ABSOLUTE BASOPHIL [2]: 0 CELLS/uL
- ABSOLUTE EOSINOPHIL [2]: 33 CELLS/uL
- ABSOLUTE LYMPHOCYTE [2]: 12184 CELLS/uL
- ABSOLUTE MONOCYTE [2]: 108 CELLS/uL
- ABSOLUTE SEGMENTED NEUTROPHIL [2]: 958.33 CELLS/uL
- BASOPHIL [2]: 0%
- EOSINOPHIL [2]: 0.17%
- ERYTHROCYTE COUNT [2]: 5.9 x10E6/uL
- HEMATOCRIT [2]: 36.58%
- HEMOGLOBIN [2]: 13.33 G/DL
- LEUKOCYTE COUNT [2]: 13.28 x10E3/uL
- LYMPHOCYTE [2]: 91.17%
- MEAN CORPUSCULAR HEMOGLOBIN [2]: 22.67 pg
- MEAN CORPUSCULAR HEMOGLOBIN CONCENTRATION [2]: 36.47 G/DL
- MEAN CORPUSCULAR VOLUME [2]: 62.13 fL
- MONOCYTE [2]: 0.83%
- NEUTROPHIL [2]: 7.83%
- NUCLEATED RED BLOOD CELLS [2]: 0.33 /100WBC
- PLATELET COUNT [2]: 1475.33 x10E3/uL
- ALANINE AMINOTRANSFERASE [2]: 47 u/L
- ALBUMIN [2]: 4.35 G/DL
- ALKALINE PHOSPHATASE [2]: 368.33 u/L
- ASPARTATE AMINOTRANSFERASE [2]: 90.83 u/L
- BLOOD UREA NITROGEN [2]: 15.5 mg/dL
- CARBON DIOXIDE [2]: 26.5 mmol/L
- CHLORIDE [2]: 103.33 MEQ/L
- CHOLESTEROL [2]: 71.83 mg/dL
- CREATINE PHOSPHOKINASE [2]: 585.33 u/L
- CREATININE [2]: 0.19 mg/dL
- GLUCOSE [2]: 171.17 mg/dL
- LACTATE DEHYDROGENASE [2]: 388.83 u/L
- LIPASE [2]: 10.83 u/L
- PHOSPHORUS [2]: 11.75 mg/dL
- POTASSIUM [2]: 6.21 MEQ/L
- SODIUM [2]: 143.7 MEQ/L
- TOTAL BILIRUBIN [2]: 0.17 mg/dL
- TOTAL PROTEIN [2]: 6.17 G/DL
- URIC ACID [2]: 1.98 mg/dL
- ABSOLUTE BASOPHIL [3]: 0 CELLS/uL
- ABSOLUTE EOSINOPHIL [3]: 0 CELLS/uL
- ABSOLUTE LYMPHOCYTE [3]: 13602.67 CELLS/uL
- ABSOLUTE MONOCYTE [3]: 59 CELLS/uL
- ABSOLUTE SEGMENTED NEUTROPHIL [3]: 1538.33 CELLS/uL
- BASOPHIL [3]: 0%
- EOSINOPHIL [3]: 0%
- ERYTHROCYTE COUNT [3]: 5.23 x10E6/uL
- HEMATOCRIT [3]: 33.13%
- HEMOGLOBIN [3]: 12.77 G/DL
- LEUKOCYTE COUNT [3]: 15.2 x10E3/uL
- LYMPHOCYTE [3]: 89.67%
- MEAN CORPUSCULAR HEMOGLOBIN [3]: 24.4 pg
- MEAN CORPUSCULAR HEMOGLOBIN CONCENTRATION [3]: 38.53 G/DL
- MEAN CORPUSCULAR VOLUME [3]: 63.37 fL
- MONOCYTE [3]: 0.33%
- NEUTROPHIL [3]: 10%
- NUCLEATED RED BLOOD CELLS [3]: 0.33 /100WBC
- PLATELET COUNT [3]: 1243.67 x10E3/uL
- ALANINE AMINOTRANSFERASE [3]: 60 u/L
- ALBUMIN [3]: 4.27 G/DL
- ALKALINE PHOSPHATASE [3]: 485.33 u/L
- ASPARTATE AMINOTRANSFERASE [3]: 76.33 u/L
- BLOOD UREA NITROGEN [3]: 18.67 mg/dL
- CARBON DIOXIDE [3]: 25 mmol/L
- CHLORIDE [3]: 104.67 MEQ/L
- CHOLESTEROL [3]: 77.67 mg/dL
- CREATINE PHOSPHOKINASE [3]: 170 u/L
- CREATININE [3]: 0.26 mg/dL
- GLUCOSE [3]: 180.67 mg/dL
- LACTATE DEHYDROGENASE [3]: 87.67 u/L
- LIPASE [3]: 11 u/L
- PHOSPHORUS [3]: 13.93 mg/dL
- POTASSIUM [3]: 6.97 MEQ/L
- SODIUM [3]: 146.7 MEQ/L
- TOTAL BILIRUBIN [3]: 0.23 mg/dL
- TOTAL PROTEIN [3]: 5.97 G/DL
- URIC ACID [3]: 1.47 mg/dL
